Data from PubChem BioAssay (NCI).
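Cells were grown in 96-well plates and exposed to each compound for 48 hours at five concentrations; endpoints were interpolated linearly between bracketing concentrations, or set to the highest concentration if not reached. At the GI50, growth is halved. TGI: concentration producing complete growth inhibition.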

Experiments:
Assay in all cases: DTP human tumour cell line panel, 48 h
[1] = system: LOX IMVI melanoma
[2] = system: SN12C renal
[3] = system: RXF 393 renal
[4] = system: M14 melanoma
[5] = system: SR leukemia
[6] = system: EKVX NSCLC
[7] = system: HS 578T breast
[8] = system: SF-539 CNS
[9] = system: 786-0 renal
[10] = system: T-47D breast
[11] = system: K-562 leukemia
[12] = system: SK-MEL-5 melanoma
[13] = system: ACHN renal
[14] = system: NCI-H23 lung
[15] = system: HOP-92 NSCLC
[16] = system: A498 renal
[17] = system: SW-620 colon
[18] = system: OVCAR-5 ovarian
[19] = system: NCI-H460 lung
[20] = system: HT29 colon
[21] = system: CAKI-1 renal
[22] = system: SNB-19 CNS
[23] = system: COLO 205 colon
[24] = system: U251 CNS
[25] = system: SK-MEL-2 melanoma
[26] = system: HOP-62 NSCLC
[27] = system: PC-3 prostate
[28] = system: A549 NSCLC
[29] = system: DU-145 prostate
[30] = system: MOLT-4 leukemia
[31] = system: MDA-MB-231 breast
[32] = system: MALME-3M melanoma
[33] = system: SF-268 CNS
[34] = system: UACC-257 melanoma
[35] = system: KM12 colon
[36] = system: NCI-H522 lung
[37] = system: NCI/ADR-RES ovarian
[38] = system: OVCAR-4 ovarian
[39] = system: SK-OV-3 ovarian
[40] = system: IGROV1 ovarian
[41] = system: HCC-2998 colon
[42] = system: HL-60(TB) leukemia
[43] = system: UO-31 renal
[44] = system: UACC-62 melanoma
[45] = system: OVCAR-3 ovarian
[46] = system: RPMI-8226 leukemia
[47] = system: TK-10 renal
[48] = system: CCRF-CEM leukemia
[49] = system: BT-549 breast
[50] = system: NCI-H226 lung
[51] = system: HCT-116 colon
[52] = system: SNB-75 CNS
[53] = system: MDA-MB-435
[54] = system: HCT-15 colon
[55] = system: MCF7 breast
[56] = system: SK-MEL-28 melanoma
[57] = system: OVCAR-8 ovarian
[58] = system: SF-295 CNS

## CN1CCN(c2ccc3nc(-c4c5cccccc-5[nH]c4=O)[nH]c3c2)CC1
[1]
  GI50: 7.78 µM
  TGI: 22.4 µM
[2]
  GI50: 5.37 µM
  TGI: > 80.9 µM
[3]
  GI50: 3.39 µM
  TGI: 15.8 µM
[4]
  GI50: 13.3 µM
  TGI: 27.8 µM
[5]
  GI50: 12.7 µM
  TGI: 49.5 µM
[6]
  GI50: 29.4 µM
  TGI: > 100 µM
[7]
  GI50: 13 µM
  TGI: > 100 µM
[8]
  GI50: 10.1 µM
  TGI: 22.8 µM
[9]
  GI50: 11.2 µM
  TGI: 46.6 µM
[10]
  GI50: 30.8 µM
  TGI: > 91.7 µM
[11]
  GI50: 10.6 µM
  TGI: 53.4 µM
[12]
  GI50: 14.8 µM
  TGI: 28.3 µM
[13]
  GI50: 6.09 µM
  TGI: 60.9 µM
[14]
  GI50: 13.9 µM
  TGI: 51.7 µM
[15]
  GI50: 18 µM
  TGI: > 100 µM
[16]
  GI50: 4.77 µM
  TGI: 21.4 µM
[17]
  GI50: 5.79 µM
  TGI: 43.7 µM
[18]
  GI50: 15.9 µM
  TGI: 52.1 µM
[19]
  GI50: 5.45 µM
  TGI: 27.2 µM
[20]
  GI50: 8 µM
  TGI: 23.1 µM
[21]
  GI50: 7.29 µM
  TGI: > 62.1 µM
[22]
  GI50: 12.3 µM
  TGI: 71.6 µM
[23]
  GI50: 8.39 µM
  TGI: 22.2 µM
[24]
  GI50: 11.6 µM
  TGI: 41 µM
[25]
  GI50: 27.1 µM
  TGI: > 66.9 µM
[26]
  GI50: 10.5 µM
  TGI: 54.7 µM
[27]
  GI50: 17.4 µM
  TGI: > 100 µM
[28]
  GI50: 7.58 µM
  TGI: > 59.3 µM
[29]
  GI50: 9.67 µM
  TGI: 35.8 µM
[30]
  GI50: 3.49 µM
  TGI: 22.3 µM
[31]
  GI50: 11.8 µM
  TGI: 36.7 µM
[32]
  GI50: 14.6 µM
  TGI: 31 µM
[33]
  GI50: 11.9 µM
  TGI: 40.3 µM
[34]
  GI50: 17.6 µM
  TGI: 35.3 µM
[35]
  GI50: 0.266 µM
  TGI: 13.9 µM
[36]
  GI50: 15.6 µM
  TGI: > 46.8 µM
[37]
  GI50: 23.4 µM
  TGI: 97.4 µM
[38]
  GI50: 13.9 µM
  TGI: 55.2 µM
[39]
  GI50: 9.43 µM
  TGI: 83.1 µM
[40]
  GI50: 5.27 µM
  TGI: 45.5 µM
[41]
  GI50: 13.7 µM
  TGI: 37 µM
[42]
  GI50: 13.7 µM
  TGI: 33.5 µM
[43]
  GI50: 3.53 µM
  TGI: 52.9 µM
[44]
  GI50: 19.6 µM
  TGI: 43.4 µM
[45]
  GI50: 17.2 µM
  TGI: 58.2 µM
[46]
  GI50: 16.8 µM
  TGI: 62.4 µM
[47]
  GI50: 27.9 µM
  TGI: > 74.5 µM
[48]
  GI50: 10.1 µM
  TGI: > 84.1 µM
[49]
  GI50: 13.4 µM
  TGI: 66 µM
[50]
  GI50: 7.18 µM
  TGI: 55.9 µM
[51]
  GI50: 9.55 µM
  TGI: 25.5 µM
[52]
  GI50: 7.64 µM
  TGI: > 45.2 µM
[53]
  GI50: 14.3 µM
  TGI: 29.7 µM
[54]
  GI50: 11.5 µM
  TGI: 55.9 µM
[55]
  GI50: 6.27 µM
  TGI: 32.1 µM
[56]
  GI50: 15.6 µM
  TGI: 30.3 µM
[57]
  GI50: 11.3 µM
  TGI: > 72.2 µM
[58]
  GI50: 20.3 µM
  TGI: > 76.5 µM

## CCN(CC)CCOc1ccc(/C=C2\CC3C4CC=C5C[C@@H](N6CCCC6)CC[C@]5(C)C4CC[C@]3(C)[C@H]2OC(C)=O)cc1OC (some centres not stated)
[1]
  GI50: 1.03 µM
  TGI: 2.4 µM
[2]
  GI50: 1.19 µM
  TGI: 2.64 µM
[3]
  GI50: 0.815 µM
  TGI: 2.77 µM
[4]
  GI50: 0.133 µM
  TGI: 0.217 µM
[5]
  GI50: 0.191 µM
  TGI: 0.444 µM
[6]
  GI50: 1.59 µM
  TGI: 3.47 µM
[7]
  GI50: 1.03 µM
  TGI: 2.32 µM
[8]
  GI50: 0.597 µM
  TGI: 1.2 µM
[9]
  GI50: 0.635 µM
  TGI: 1.3 µM
[10]
  GI50: 1.03 µM
  TGI: 2.21 µM
[11]
  TGI: > 36 µM
[12]
  GI50: 0.72 µM
  TGI: 1.39 µM
[13]
  GI50: 0.791 µM
  TGI: 1.56 µM
[14]
  GI50: 1.63 µM
  TGI: 3.32 µM
[15]
  GI50: 0.152 µM
  TGI: 1.88 µM
[16]
  GI50: 1.96 µM
  TGI: 3.46 µM
[17]
  GI50: 0.555 µM
  TGI: 1.92 µM
[18]
  GI50: 1.39 µM
  TGI: 3.06 µM
[19]
  GI50: 1.6 µM
  TGI: 4.46 µM
[20]
  GI50: 0.144 µM
  TGI: > 44.1 µM
[21]
  GI50: 1.25 µM
  TGI: 2.99 µM
[22]
  GI50: 0.698 µM
  TGI: 3.47 µM
[23]
  GI50: 2.04 µM
  TGI: 4.28 µM
[24]
  GI50: 1.18 µM
  TGI: 2.44 µM
[25]
  GI50: 3.45 µM
  TGI: > 100 µM
[26]
  GI50: 0.899 µM
  TGI: 2.27 µM
[27]
  GI50: 1.13 µM
  TGI: 2.51 µM
[28]
  GI50: 1.64 µM
  TGI: 3.67 µM
[29]
  GI50: 1.05 µM
  TGI: 6.07 µM
[30]
  GI50: 0.091 µM
  TGI: 0.345 µM
[31]
  GI50: 1.73 µM
  TGI: 3.25 µM
[32]
  GI50: 0.579 µM
  TGI: 1.24 µM
[33]
  GI50: 1.86 µM
  TGI: 4.56 µM
[34]
  GI50: 1.91 µM
  TGI: 3.92 µM
[35]
  GI50: 0.0997 µM
  TGI: 1.16 µM
[36]
  GI50: 2.35 µM
[37]
  GI50: 0.57 µM
  TGI: 1.93 µM
[38]
  GI50: 2.14 µM
  TGI: 5.65 µM
[39]
  GI50: 2.4 µM
  TGI: 6.06 µM
[40]
  TGI: 1.73 µM
[41]
  GI50: 0.197 µM
  TGI: 0.647 µM
[42]
  GI50: 0.639 µM
  TGI: 1.77 µM
[43]
  GI50: 2.28 µM
[44]
  GI50: 0.715 µM
  TGI: 1.41 µM
[45]
  GI50: 0.773 µM
  TGI: 1.84 µM
[46]
  GI50: 0.124 µM
  TGI: 5.24 µM
[47]
  GI50: 1.24 µM
  TGI: 2.67 µM
[48]
  GI50: 0.197 µM
  TGI: 0.457 µM
[49]
  GI50: 1.8 µM
  TGI: 3.52 µM
[50]
  GI50: 1.26 µM
  TGI: 3.3 µM
[51]
  GI50: 0.132 µM
  TGI: 0.548 µM
[52]
  GI50: 2.21 µM
  TGI: 5.1 µM
[53]
  GI50: 0.277 µM
  TGI: 0.745 µM
[54]
  GI50: 1.08 µM
  TGI: 2.45 µM
[55]
  GI50: 1.21 µM
[56]
  GI50: 1.71 µM
  TGI: 3.56 µM
[57]
  GI50: 1.07 µM
  TGI: 3.47 µM
[58]
  GI50: 1.55 µM
  TGI: 2.95 µM
